The source of these data is patent US20190388389A1, “METHODS AND COMPOSITIONS OF CARNOSOL FOR INHIBITING UVB-INDUCED SKIN DAMAGE” (Ohio University, priority 2017, published 2019).

By cell viability is commonly meant the share of living cells, or the viability signal relative to a control.

One data set concerns MEF cells. The data set is described as follows: Cell survival analysis (Annexin V/PI flow cytometry), MEF. In kind it is cell-based, mouse. Conditions: 20 μM carnosol. Here is the method: FIGS. 6A-6C: Carnosol protects UVB-induced cell death. Cells were exposed to UVB radiation with different dose of carnosol treatment. At indicated time point, cells were collected and Annexin V/PI apoptosis detection kit was used to detect cell apoptosis. (FIG. 6A) HaCaT cell survival rate with different concentrations (μM) of carnosol treatment at 12 h post UVB radiation. (FIG. 6B) Time dependent assay (h) in the presence or absence of carnosol treatment in HaCaT cells. (FIG. 6C) MEF cells treated with 20 μM carnosol at indicated time point (h). The error bars present the standard deviation of three sets of independent experiments. *p<0.05 versus control group; **p<0.05 versus corresponded UV group.
UVB was generated from a Bench XX-Series UV Lamp (UVP Inc.) equipped with two 15-watt UVB tubes (UVP Inc.). The intensity of UVB was calibrated by a UVP model UVX digital radiometer (UVP Inc.) after the lamps warmed up for 5 min. For irradiating cells, the dose rate for 8 mJ/cm^2 or 50 mJ/cm^2 of UVB radiation was 0.8 or 3.8 mW/s respectively. Medium was removed before exposing the cells to UVB. After UVB radiation, fresh medium was added to the culture plates with or without drugs, and the cells were continue incubating at 37° C. with 5% CO2 until further analysis. Carnosol was disovled in DMSO and was irradiated with 50 mJ/cm^2 of UVB radiation at a dose rate of 3.8 mW/s before subjecting to cells or structure analysis using Mass Spectrum.
Carnosol (Cayman) (FIG. 1) was added to cells at indicated concentration at 1 h before exposing the cells to UVB radiation. After radiation, cells were continuously incubated with or without carnosol in the medium until further analysis.
Total cell number of 1×10^5 was used for each analysis using flow cytometer. Fluorescein isothiocyanate (FITC) conjugated-annexin V (ANXS)/propidium iodide (PI) apoptosis detection kit (BD Biosciences) were used to stain the cells through the determination of the loss of membrane phospholipid […] and membrane integrity. Cell survival rate (R) was calculated as: R=[1×10^5−number of positive stained cells]/1×10^5. Briefly, the cells were harvested by 0.25% trypsin digestion, combined with the cells floating in the medium and washed twice with cold PBS. The cells were then suspended in ANXS binding buffer (10 mM Hepes/NaOH, pH 7.4, 140 mM NaCl and 2.5 mM CaCl2). The cell suspension was mixed with 5 μL ANXS-FITC and 5 μL PI. The cell mixture was incubated for […] in dark at room temperature and the ANXS/PI double-stained cells were analyzed using a FACSort Flow Cytometer (BD Science) equipped with CellQuest software (BD Science).
In general terms: A flow cytometer gives signals particle by particle.

The next data set has as its system NF-κB. The data set is described as follows: Western blot for S276 phosphorylation of NF-κB, HaCaT cells. It counts as cell-based, Human. Conditions: 20 μM carnosol, 6 h post UVB. The procedure: FIGS. 7A-7F: Carnosol inhibited UVB-induced NF-κB activation. Cells were exposed to UVB radiation in the presence or absence of carnosol. Cells were lysed at indicated time point and protein levels were measured by western blot analysis. (FIG. 7A) Western blot for IκB protein level in HaCaT cells at 2, 4 h post UVB radiation at 1, 10 or 20 μM carnosol treatment. (FIG. 7B) Western blot analysis for IκB protein level in HaCaT cells at 6 h post UVB radiation in the presence or absence of carnosol. (FIG. 7C) Western blot analysis for IκB protein level in MEF cells at 6 h post UVB radiation in the presence or absence of carnosol. (FIG. 7D) Western blot for 5276 site phosphorylation of NF-κB in HaCaT cells at 6 h post UVB with indicated carnosol concentration. (FIG. 7E) EMSA assay for HaCaT cells at 2, 4, 6 h post UVB radiation in the presence or absence of carnosol (20 μM). (FIG. 7F) Statistical analysis of the EMSA assay using two to three sets of independent experiments. *p<0.05 versus control group, **p<0.05 versus UV group at indicated time point.
Cells were lysed with Nonidet P-40 (NP-40) lysis buffer (2% NP-40, 80 mM NaCl, 100 mM Tris-HCl pH 8.0, 0.1% SDS) with proteinase inhibitor mixture (Complete™, Roche Molecular Biochemicals) at indicated time point. […] Protein concentration was measured by Protein DC Assay kit (Bio-Rad Laboratories). […]

The subject of data set [1] is A431 human squamous carcinoma cell. The data set is described as follows: MTT cell viability assay, A431. In kind it is cell-based. Conditions: A431, carnosol plus 50 mJ/cm^2 UVB, 24 h, vs no treatment control; UVB alone about 50%. The procedure: FIGS. 9A-9B. Carnosol decreases A431 cancer cell progression. Squamous carcinoma cell A431 was used to determine the effect of carnosol on cancer cell progression. (FIG. 9A) Effect of carnosol on cell viability. Cells were treated upon 50 mJ/cm^2 UVB radiation with or without carnosol treatment. After 24 h, cells were collect and MTT assay was performed to determine the cell viability. *p<0.05 versus control group, **p<0.05 versus UV group at indicated time point. (FIG. 9B) Effect of carnosol on clonogenic assay. Cells were exposed to 8 mJ/cm^2 UVB exposure in the presence or absence of carnosol. 5×10^3 cells were plated into 6 well plate immediately after treatment and incubated for […]. The error bars present the standard deviation of three sets of independent experiments. *p<0.05 versus control group, **p<0.05 versus UV group at indicated time point.
Since carnosol protects cell death upon UVB radiation, how carnosol affects skin cancer cells was also determined. A431 human squamous carcinoma cell was used as it is one of the cancer types that keratinocyte would develop. Cell viability was determined by MTT assay.
(Tetrazolium dyes change colour on reduction, which living cells bring about.)

As for `CC(C)c1cc2c(c(O)c1O)[C@@]13CCCC(C)(C)[C@@H]1C[C@@H]2OC3=O` [carnosol], the cell survival rate was 97% with MEF cells (12 h post UVB, UVB alone about 88%); 90% with MEF cells (24 h post UVB, UVB alone 80%); 70% in the data set on MEF cells (36 h post UVB, UVB alone 62%); 58% in the data set on MEF cells (48 h post UVB, UVB alone 43%). Also, in the data set with NF-κB, the “phosphorylation of NF-κB at Serine 276 (S276)” value is on record as “reduces the phosphorylation”. For the same molecule, the cell viability in data set [1] came to 30%.
